Legend:
[1] = anticoagulation monitoring (anti-FIIa activity) after oral dabigatran in mice; format: in vivo; conditions: oral administration of 1 mg/g body weight dabigatran
Method: The in-vivo antidote properties of aptathrombin were studied in a mouse model after oral administration of 1 mg/g body weight dabigatran.

[2] = humans, after dabigatran administration; cited from earlier work

For “N-[2-(4-Aminoiminomethylphenylamino)-1-methyl-1H-benzimidazol-5-ylcarbonyl]-N-(2-pyridyl)-beta-alanine [dabigatran]”, the “time to peak level of anti-FIIa activities” value [1] is listed as 3 to 4 h, the “plasma concentration, upper limit of the peak level” value [2] is listed as 280 ng/mL and the “time at which peak level is reached” value [2] is listed as 2 to 4 h.
